Experimental findings from patent publication US8889688B2, “Piperazines as antimalarial agents” (Actelion Pharmaceuticals Ltd., priority 2011, dated 2014) are described below.

The test system of experiment [1] is P. berghei strain GFP-ANKA. Kind of experiment: In vivo antimalarial efficacy study in infected NMRI mice. The settings on record: female NMRI mice infected with P. berghei GFP-ANKA, single oral dose of 100 mg/kg 24 h after infection, parasitemia 48 h after drug treatment (day 3); for inhibition in vivo at 100 mg/kg: Plasmodium berghei, read-out: Activity (inhibition of parasitemia) expressed as a percent relative to the control group. The procedure: In Vivo Antimalarial Efficacy Studies
In vivo antimalarial activity is assessed for groups of three female NMRI mice (20-22 g) intravenously infected on day 0 with P. berghei strain GFP-ANKA (0.2 mL heparinized saline suspension containing 2×10^7 parasitized erythrocytes). In control mice, parasitemia typically rises to approximately 40% by day 3 after infection. Compounds are formulated in Tween 80/ethanol (7%/3%) usually at concentrations of 10 mg/mL. Compounds are administered in a volume of 10 mL/kg orally as single doses (1×100 mg/kg, 24 h after infection). 48 h after drug treatment (day 3 post-infection), 1 μl tail blood is taken, resuspended in 1 mL PBS buffer and parasitemia determined with a FACScan (Becton Dickinson) by counting 100′000 red blood cells. Activity is calculated as the difference between the mean value of the control group and treated groups expressed as a percent relative to the control group.

For experiment [2], the system named is erythrocytic stages of P. falciparum NF54. The experiment in a line: Plasmodium falciparum in vitro assay, [3H] hypoxanthine incorporation. It counts as cell-based. The settings on record: P. falciparum NF54 in human red blood cells, 48 h + 24 h incubation. Here is the method:
In Vitro Antimalarial Activity: Plasmodium falciparum In Vitro Assay In vitro activity against erythrocytic stages of P. falciparum in human red blood cells is determined using a [^3H] hypoxanthine incorporation assay. […] Thereafter, the parasite cultures incubated in screening medium containing washed human red blood cells at 2.5% hematocrit (0.3% parasitemia) are added to the serially diluted compounds and incubated in a humidifying atmosphere at 37° C., 4% CO2, 3% O2, and 93% N2. After 48 h, [^3H] hypoxanthine (0.5 μCi) is added to each well of a plate. The plates are incubated for a further 24 h under the same conditions then harvested with a Betaplate cell harvester (Wallac) and washed with distilled water. The dried filters are inserted into a plastic foil with 10 mL of scintillation fluid, and counted in a Betaplate liquid scintillation counter. IC50 values are calculated from sigmoidal inhibition curves using Microsoft Excel.

Setting [3] is: Plasmodium falciparum, Erythrocyte, 72 h, screening medium with Albumax (5 g/L), read-out: IC50 on NF54 (with Albumax).
Where [4] appears, read: Plasmodium falciparum, Erythrocyte, 72 h, screening medium with human serum (50% final concentration), read-out: IC50 on NF54 (with 50% Serum).

Like-named read-outs stand apart in the source and are kept apart here.

The IC50 is the concentration at which inhibition is half-maximal. Consider `CC(=O)N1CCN(c2ccc(CN(C(=O)C=Cc3ccc(C(C)(C)C)cc3)[C@@H](Cc3ccccc3)C(=O)N3CCN(Cc4ccc(S(C)(=O)=O)cc4)CC3)cc2)CC1` [Example 45, (S)-N-[4-(4-Acetyl-piperazin-1-yl)-benzyl]-N-{1-benzyl-2-[4-(4-(methylsulfonyl)-benzyl)-piperazin-1-yl]-2-oxo-ethyl}-3-(4-tert-butyl-phenyl)-acrylamide], for which, in experiment [1], the inhibition in vivo at 100 mg/kg was determined as 99.4%. For the same compound, the IC50 in experiment [2] (setting [3]) was determined as 0.2 nM; in experiment [2] (setting [4]), 1.8 nM.
On to “(S)-N-[4-(4-Acetyl-piperazin-1-yl)-benzyl]-N-[1-benzyl-2-(4-{4-[(2-hydroxy-ethyl)-methyl-amino]-benzyl}-piperazin-1-yl)-2-oxo-ethyl]-3-(4-isopropyl-phenyl)-acrylamide [Example 61]”, for which the “Activity (inhibition of parasitemia) expressed as a percent relative to the control group” value in experiment [1] came out at 98.8%. Besides, the IC50 in experiment [2] (screening medium with Albumax (5 g/L), read-out: IC50 on NF54 (with Albumax)) worked out at 1.2 nM; in experiment [2] (screening medium with human serum (50% final concentration), read-out: IC50 on NF54 (with 50% Serum)), 6.7 nM.
As to `CCOc1ccc(C=CC(=O)N(Cc2ccc(N3CCN(C(C)=O)CC3)cc2)[C@@H](Cc2ccccc2)C(=O)N2CCN(Cc3ccc(N(C)C)cc3)CC2)cc1` [Example 15, (S)-N-[4-(4-Acetyl-piperazin-1-yl)-benzyl]-N-{1-benzyl-2-[4-(4-dimethylamino-benzyl)-piperazin-1-yl]-2-oxo-ethyl}-3-(4-ethoxy-phenyl)-acrylamide], the inhibition in vivo at 100 mg/kg in experiment [1] came out at 99%. For the same compound, the IC50 in experiment [2] (setting [3]) was 1.7 nM; in experiment [2] (setting [4]) it was 6.8 nM.
On the same counts, the results for `CC(=O)N1CCN(c2ccc(CN(C(=O)C=Cc3ccc(C(F)(F)F)cc3)[C@@H](Cc3ccccc3)C(=O)N3CCN(Cc4ccc(N(C)CCO)cc4)CC3)cc2)CC1` [Example 50, (S)-N-[4-(4-Acetyl-piperazin-1-yl)-benzyl]-N-[1-benzyl-2-(4-{4-[(2-hydroxy-ethyl)-methyl-amino]-benzyl}-piperazin-1-yl)-2-oxo-ethyl]-3-(4-trifluoromethyl-phenyl)-acrylamide] are 98%, 1.6 nM and 9.3 nM.
On the same counts, the results for `CC(=O)N1CCN(c2ccc(CN(C(=O)C=Cc3ccc(S(C)(=O)=O)cc3)[C@@H](Cc3ccccc3)C(=O)N3CCN(Cc4ccccc4)CC3)cc2)CC1` [Example 6, (S)-N-[4-(4-Acetyl-piperazin-1-yl)-benzyl]-N-[1-benzyl-2-(4-benzyl-piperazin-1-yl)-2-oxo-ethyl]-3-(4-methanesulfonyl-phenyl)-acrylamide] are 80.4%, 9.4 nM and 32 nM.
On to `CC(=O)N1CCN(c2ccc(CN(C(=O)C=Cc3ccc(C(C)(C)C)cc3)[C@@H](Cc3ccccc3)C(=O)N3CCN(Cc4ccc(N(C)C)cc4)CC3)cc2)CC1` [Example 22, (S)-N-[4-(4-Acetyl-piperazin-1-yl)-benzyl]-N-{1-benzyl-2-[4-(4-dimethylamino-benzyl)-piperazin-1-yl]-2-oxo-ethyl}-3-(4-tert-butyl-phenyl)-acrylamide], for which the inhibition in vivo at 100 mg/kg in experiment [1] came out at 99.3%. Besides, the figures for the IC50 in experiment [2] (setting [3]) and in experiment [2] (setting [4]) were 1.3 nM and 10.9 nM, respectively.
On the same counts, the results for `CC(=O)N1CCN(c2ccc(CN(C(=O)C=Cc3ccc(OC(F)F)cc3)[C@@H](Cc3ccccc3)C(=O)N3CCN(Cc4ccc(N(C)C)cc4)CC3)cc2)CC1` [Example 21, (S)-N-[4-(4-Acetyl-piperazin-1-yl)-benzyl]-N-{1-benzyl-2-[4-(4-dimethylamino-benzyl)-piperazin-1-yl]-2-oxo-ethyl}-3-(4-difluoromethoxy-phenyl)-acrylamide] are 98.8%, 1.9 nM and 7 nM.
In the case of `CC(=O)N1CCN(c2ccc(CN(C(=O)C=Cc3ccc(OC(C)C)cc3)[C@@H](Cc3ccccc3)C(=O)N3CCN(Cc4ccc(N(C)C)cc4)CC3)cc2)CC1` [Example 19, (S)-N-[4-(4-Acetyl-piperazin-1-yl)-benzyl]-N-{1-benzyl-2-[4-(4-dimethylamino-benzyl)-piperazin-1-yl]-2-oxo-ethyl}-3-(4-isopropoxy-phenyl)-acrylamide], in experiment [1], the inhibition in vivo at 100 mg/kg is 99.2%. For the same compound, the IC50 in experiment [2] (setting [3]) came out at 2.6 nM; in experiment [2] (setting [4]), 9.3 nM.
The like results for `CC(=O)N1CCN(c2ccc(CN(C(=O)C=Cc3ccc(C(C)(C)C)cc3)[C@@H](Cc3ccccc3)C(=O)N3CCN(Cc4ccc(C#N)cc4)CC3)cc2)CC1` [Example 34, (S)-N-[4-(4-Acetyl-piperazin-1-yl)-benzyl]-N-{1-benzyl-2-[4-(4-cyano-benzyl)-piperazin-1-yl]-2-oxo-ethyl}-3-(4-tert-butyl-phenyl)-acrylamide] were, in that order, 99.2%, 0.5 nM and 3.8 nM.
The like results for `CC(=O)N1CCN(c2ccc(CN(C(=O)C=Cc3ccc(OC(C)C)cc3)[C@@H](Cc3ccccc3)C(=O)N3CCN(Cc4ccc(N(C)CCO)cc4)CC3)cc2)CC1` [Example 58, (S)-N-[4-(4-Acetyl-piperazin-1-yl)-benzyl]-N-[1-benzyl-2-(4-{4-[(2-hydroxy-ethyl)-methyl-amino]-benzyl}-piperazin-1-yl)-2-oxo-ethyl]-3-(4-isopropoxy-phenyl)-acrylamide] were, in that order, 98.2%, 1.4 nM and 3.9 nM.
On the same counts, the results for `CC(=O)N1CCN(c2ccc(CN(C(=O)C=Cc3ccc(C(C)C)cc3)[C@@H](Cc3ccccc3)C(=O)N3CCN(Cc4ccc(Cl)cc4)CC3)cc2)CC1` [Example 42, (S)-N-[4-(4-Acetyl-piperazin-1-yl)-benzyl]-N-{1-benzyl-2-[4-(4-chloro-benzyl)-piperazin-1-yl]-2-oxo-ethyl}-3-(4-isopropyl-phenyl)-acrylamide] are 97.3%, 1.7 nM and 13.7 nM.
Regarding `CC(=O)N1CCN(c2ccc(CN(C(=O)C=Cc3ccc(OC(C)C)cc3)[C@@H](Cc3ccccc3)C(=O)N3CCN(Cc4ccc(Cl)cc4)CC3)cc2)CC1` [Example 39, (S)-N-[4-(4-Acetyl-piperazin-1-yl)-benzyl]-N-{1-benzyl-2-[4-(4-chloro-benzyl)-piperazin-1-yl]-2-oxo-ethyl}-3-(4-isopropoxy-phenyl)-acrylamide], the inhibition in vivo at 100 mg/kg in experiment [1] worked out at 99%. Besides, the IC50 in experiment [2] (setting [3]) was 2.3 nM; in experiment [2] (setting [4]), 11 nM.
On the same counts, the results for `CCCOc1ccc(C=CC(=O)N(Cc2ccc(N3CCN(C(C)=O)CC3)cc2)[C@@H](Cc2ccccc2)C(=O)N2CCN(Cc3ccc(C#N)cc3)CC2)cc1` [Example 28, (S)-N-[4-(4-Acetyl-piperazin-1-yl)-benzyl]-N-{1-benzyl-2-[4-(4-cyano-benzyl)-piperazin-1-yl]-2-oxo-ethyl}-3-(4-propoxy-phenyl)-acrylamide] are 99.3%, 1.1 nM and 3.6 nM.
On the same counts, the results for `CC(=O)N1CCN(c2ccc(CN(C(=O)C=Cc3ccc(OC(F)F)cc3)[C@@H](Cc3ccccc3)C(=O)N3CCN(Cc4ccc(C#N)cc4)CC3)cc2)CC1` [Example 31, (S)-N-[4-(4-Acetyl-piperazin-1-yl)-benzyl]-N-{1-benzyl-2-[4-(4-cyano-benzyl)-piperazin-1-yl]-2-oxo-ethyl}-3-(4-difluoromethoxy-phenyl)-acrylamide] are 88.9%, 1.7 nM and 3.8 nM.
The like results for `CCOc1ccc(C=CC(=O)N(Cc2ccc(N3CCN(C(C)=O)CC3)cc2)[C@@H](Cc2ccccc2)C(=O)N2CCN(Cc3ccc(C#N)cc3)CC2)cc1` [Example 25, (S)-N-[4-(4-Acetyl-piperazin-1-yl)-benzyl]-N-{1-benzyl-2-[4-(4-cyano-benzyl)-piperazin-1-yl]-2-oxo-ethyl}-3-(4-ethoxy-phenyl)-acrylamide] were, in that order, 99.1%, 1.2 nM and 4.7 nM.
On to `CC(=O)N1CCN(c2ccc(CN(C(=O)C=Cc3ccc(S(C)(=O)=O)cc3)[C@@H](Cc3ccccc3)C(=O)N3CCN(Cc4ccc(Cl)cc4)CC3)cc2)CC1` [Example 36, (S)-N-[4-(4-Acetyl-piperazin-1-yl)-benzyl]-N-{1-benzyl-2-[4-(4-chloro-benzyl)-piperazin-1-yl]-2-oxo-ethyl}-3-(4-methanesulfonyl-phenyl)-acrylamide], for which the inhibition in vivo at 100 mg/kg in experiment [1] was found to be 46.8%. The IC50 turned out to be 7.8 nM in experiment [2] (setting [3]) and 28 nM in experiment [2] (setting [4]).
